Experimental data taken from patent publication US20260125371A1, “METHOD FOR INHIBITING CLOSTRIDIOIDES DIFFICILE SPORE GERMINATION” (UNIVERSITY OF NOTRE DAME DU LAC, priority 2022, published 2026).
Values after ≈ are worked out from the molar mass of the structure shown. Like-named read-outs stand apart in the source and are kept apart here. Each block holds one molecule with its values, some of them ahead of it.

Tests used:
C. difficile ATCC 43255 = test: Determination of minimal-inhibitory concentrations (microdilution), C. difficile ATCC 43255; format: cell-based, Clostridioides difficile; settings: for MIC: Clostridioides difficile
S. aureus = test: MIC against S. aureus strains; format: cell-based; settings: S. aureus ATCC 29213, 24 h
C. difficile strains = test: MIC (microdilution) against panel of 101 C. difficile strains; format: cell-based, Clostridioides difficile; settings: Clostridioides difficile
[1] = C. difficile ATCC 43255, 48-h incubation

SMILES: O=C1C[C@@H](c2nc(-c3ccc(Oc4ccc(C(F)(F)F)cc4)cc3)no2)CN1 [Compound 32]
- MIC (μg/mL) 48 h (C. difficile ATCC 43255; [1]): >128 µg/mL
- MIC (μg/mL) 24 h (C. difficile ATCC 43255; C. difficile ATCC 43255, 24 h): >128 µg/mL
- MIC (μg/mL) 24 h (S. aureus): >128 µg/mL

SMILES: FC(F)(F)c1ccc(Oc2ccc(-c3noc(-c4c[nH]cn4)n3)cc2)cc1 [Compound 34]
- MIC (μg/mL) 48 h (C. difficile ATCC 43255; [1]): 8 µg/mL (≈ 21.5 µM)
- MIC (μg/mL) 24 h (C. difficile ATCC 43255; C. difficile ATCC 43255, 24 h): 8 µg/mL (≈ 21.5 µM)
- MIC (μg/mL) 24 h (S. aureus): 2 µg/mL (≈ 5.37 µM)

SMILES: FC(F)(F)c1ccc(Oc2ccc(-c3noc(-c4cn[nH]n4)n3)cc2)cc1 [Compound 35]
- MIC (μg/mL) 48 h (C. difficile ATCC 43255; [1]): >128 µg/mL
- MIC (μg/mL) 24 h (C. difficile ATCC 43255; C. difficile ATCC 43255, 24 h): >128 µg/mL
- MIC (μg/mL) 24 h (S. aureus): 16 µg/mL (≈ 42.9 µM)

SMILES: Nc1c[nH]nc1-c1nc(-c2ccc(Oc3ccc(C(F)(F)F)cc3)cc2)no1 [Compound 37]
- MIC (μg/mL) 48 h (C. difficile ATCC 43255; [1]): >128 µg/mL
- MIC (μg/mL) 24 h (C. difficile ATCC 43255; C. difficile ATCC 43255, 24 h): >128 µg/mL
- MIC (μg/mL) 24 h (S. aureus): 4 µg/mL (≈ 10.3 µM)

- MIC (C. difficile ATCC 43255; ATCC43255, 24 h, C. difficile ATCC 43255, 24 h, read-out: MIC (μg/mL) 24 h): 4 µg/mL (≈ 11.5 µM)
- MIC (C. difficile ATCC 43255; ATCC43255, 48 h, C. difficile ATCC 43255, 48-h incubation, read-out: MIC (μg/mL) 48 h): 8 µg/mL (≈ 23 µM)
- MIC (C. difficile ATCC 43255; ATCC43255, strain ATCC43255, read-out: MIC): 2 µg/mL (≈ 5.76 µM)
- MIC (C. difficile strains; ATCC43598, strain ATCC43598): 2 µg/mL (≈ 5.76 µM)
- MIC (C. difficile strains; BAA1801, strain BAA-1801): 4 µg/mL (≈ 11.5 µM)
- MIC (C. difficile strains; BAA1803, strain BAA-1803): 2 µg/mL (≈ 5.76 µM)
- MIC (C. difficile strains; BAA1804, strain BAA-1804): 2 µg/mL (≈ 5.76 µM)
- MIC (C. difficile strains; BAA1812, strain BAA-1812): 2 µg/mL (≈ 5.76 µM)
- MIC (C. difficile strains; BAA1814, strain BAA-1814): 4 µg/mL (≈ 11.5 µM)
- MIC (C. difficile strains; BAA1870, strain BAA-1870): 4 µg/mL (≈ 11.5 µM)
- MIC (C. difficile strains; strain HM-88): 4 µg/mL (≈ 11.5 µM)
- MIC (C. difficile strains; strain HM-89): 8 µg/mL (≈ 23 µM)
- MIC (C. difficile strains; strain HM-745): 2 µg/mL (≈ 5.76 µM)
- MIC (C. difficile strains; strain HM-746): 2 µg/mL (≈ 5.76 µM)
- MIC (C. difficile strains; strain HM-747): 1 µg/mL (≈ 2.88 µM)
- MIC (C. difficile strains; strain NR49292): 8 µg/mL (≈ 23 µM)
- MIC (C. difficile strains; strain NR49294): 2 µg/mL (≈ 5.76 µM)
- MIC (C. difficile strains; strain NR49302): 4 µg/mL (≈ 11.5 µM)
- MIC (C. difficile strains; strain NR49305): 8 µg/mL (≈ 23 µM)
- MIC (C. difficile strains; strain NR49310): 4 µg/mL (≈ 11.5 µM)
- MIC (C. difficile strains; strain NR49318): 8 µg/mL (≈ 23 µM)
- MIC (C. difficile strains; strain NR-13427): 8 µg/mL (≈ 23 µM)
- MIC (C. difficile strains; strain NR-13428): 8 µg/mL (≈ 23 µM)
- MIC (C. difficile strains; strain NR-13429): 4 µg/mL (≈ 11.5 µM)
- MIC (C. difficile strains; strain NR-13430): 8 µg/mL (≈ 23 µM)
- MIC (C. difficile strains; strain NR-13431): 4 µg/mL (≈ 11.5 µM)
- MIC (C. difficile strains; strain NR-13433): 4 µg/mL (≈ 11.5 µM)
- MIC (C. difficile strains; strain NR-13434): 4 µg/mL (≈ 11.5 µM)
- MIC (C. difficile strains; strain NR-13435): 4 µg/mL (≈ 11.5 µM)
- MIC (C. difficile strains; strain NR-13436): 8 µg/mL (≈ 23 µM)
- MIC (C. difficile strains; strain NR-13437): 8 µg/mL (≈ 23 µM)
- MIC (C. difficile strains; strain NR-13438): 8 µg/mL (≈ 23 µM)
- MIC (C. difficile strains; strain NR-13553): 4 µg/mL (≈ 11.5 µM)
- MIC (C. difficile strains; strain NR-32882): 4 µg/mL (≈ 11.5 µM)
- MIC (C. difficile strains; strain NR-32883): 4 µg/mL (≈ 11.5 µM)
- MIC (C. difficile strains; strain NR-32884): 4 µg/mL (≈ 11.5 µM)
- MIC (C. difficile strains; strain NR-32885): 8 µg/mL (≈ 23 µM)
- MIC (C. difficile strains; strain NR-32886): 8 µg/mL (≈ 23 µM)
- MIC (C. difficile strains; strain NR-32887): 4 µg/mL (≈ 11.5 µM)
- MIC (C. difficile strains; strain NR-32888): 8 µg/mL (≈ 23 µM)
- MIC (C. difficile strains; strain NR-32889): 4 µg/mL (≈ 11.5 µM)
- MIC (C. difficile strains; strain NR-32890): 4 µg/mL (≈ 11.5 µM)
- MIC (C. difficile strains; strain NR-32891): 4 µg/mL (≈ 11.5 µM)
- MIC (C. difficile strains; strain NR-32892): 4 µg/mL (≈ 11.5 µM)
- MIC (C. difficile strains; strain NR-32895): 8 µg/mL (≈ 23 µM)
- MIC (C. difficile strains; strain NR-32896): 4 µg/mL (≈ 11.5 µM)
- MIC (C. difficile strains; strain NR-32897): 4 µg/mL (≈ 11.5 µM)
- MIC (C. difficile strains; strain NR-32900): 4 µg/mL (≈ 11.5 µM)
- MIC (C. difficile strains; strain NR-32903): 2 µg/mL (≈ 5.76 µM)
- MIC (C. difficile strains; strain NR-32904): 4 µg/mL (≈ 11.5 µM)
- MIC (C. difficile strains; strain NR-49277): 4 µg/mL (≈ 11.5 µM)
- MIC (C. difficile strains; strain NR-49278): 4 µg/mL (≈ 11.5 µM)
- MIC (C. difficile strains; strain NR-49279): 4 µg/mL (≈ 11.5 µM)
- MIC (C. difficile strains; strain NR-49280): 2 µg/mL (≈ 5.76 µM)
- MIC (C. difficile strains; strain NR-49281): 4 µg/mL (≈ 11.5 µM)
- MIC (C. difficile strains; strain NR-49282): 2 µg/mL (≈ 5.76 µM)
- MIC (C. difficile strains; strain NR-49283): 2 µg/mL (≈ 5.76 µM)
- MIC (C. difficile strains; strain NR-49284): 4 µg/mL (≈ 11.5 µM)
- MIC (C. difficile strains; strain NR-49285): 4 µg/mL (≈ 11.5 µM)
- MIC (C. difficile strains; strain NR-49286): 2 µg/mL (≈ 5.76 µM)
- MIC (C. difficile strains; strain NR-49287): 4 µg/mL (≈ 11.5 µM)
- MIC (C. difficile strains; strain NR-49288): 4 µg/mL (≈ 11.5 µM)
- MIC (C. difficile strains; strain NR-49289): 4 µg/mL (≈ 11.5 µM)
- MIC (C. difficile strains; strain NR-49290): 4 µg/mL (≈ 11.5 µM)
- MIC (C. difficile strains; strain NR-49291): 4 µg/mL (≈ 11.5 µM)
- MIC (C. difficile strains; strain NR-49293): 2 µg/mL (≈ 5.76 µM)
- MIC (C. difficile strains; strain NR-49295): 4 µg/mL (≈ 11.5 µM)
- MIC (C. difficile strains; strain NR-49296): 8 µg/mL (≈ 23 µM)
- MIC (C. difficile strains; strain NR-49297): 4 µg/mL (≈ 11.5 µM)
- MIC (C. difficile strains; strain NR-49298): 8 µg/mL (≈ 23 µM)
- MIC (C. difficile strains; strain NR-49299): 8 µg/mL (≈ 23 µM)
- MIC (C. difficile strains; strain NR-49300): 8 µg/mL (≈ 23 µM)
- MIC (C. difficile strains; strain NR-49301): 8 µg/mL (≈ 23 µM)
- MIC (C. difficile strains; strain NR-49303): 4 µg/mL (≈ 11.5 µM)
- MIC (C. difficile strains; strain NR-49304): 8 µg/mL (≈ 23 µM)
- MIC (C. difficile strains; strain NR-49306): 4 µg/mL (≈ 11.5 µM)
- MIC (C. difficile strains; strain NR-49307): 2 µg/mL (≈ 5.76 µM)
- MIC (C. difficile strains; strain NR-49308): 2 µg/mL (≈ 5.76 µM)
- MIC (C. difficile strains; strain NR-49309): 8 µg/mL (≈ 23 µM)
- MIC (C. difficile strains; strain NR-49311): 4 µg/mL (≈ 11.5 µM)
- MIC (C. difficile strains; strain NR-49312): 4 µg/mL (≈ 11.5 µM)
- MIC (C. difficile strains; strain NR-49313): 4 µg/mL (≈ 11.5 µM)
- MIC (C. difficile strains; strain NR-49314): 4 µg/mL (≈ 11.5 µM)
- MIC (C. difficile strains; strain NR-49315): 2 µg/mL (≈ 5.76 µM)
- MIC (C. difficile strains; strain NR-49316): 4 µg/mL (≈ 11.5 µM)
- MIC (C. difficile strains; strain NR-49317): 2 µg/mL (≈ 5.76 µM)
- MIC (C. difficile strains; strain NR-49319): 4 µg/mL (≈ 11.5 µM)
- MIC (C. difficile strains; strain NR-49320): 4 µg/mL (≈ 11.5 µM)
- MIC (C. difficile strains; strain NR-49321): 4 µg/mL (≈ 11.5 µM)
- MIC (C. difficile strains; strain NR-49323): 4 µg/mL (≈ 11.5 µM)
- MIC (C. difficile strains; strain NR-49324): 8 µg/mL (≈ 23 µM)
- MIC (C. difficile strains; strain NR-49325): 4 µg/mL (≈ 11.5 µM)
- MIC (C. difficile strains; strain NR-49326): 8 µg/mL (≈ 23 µM)
- MIC (C. difficile strains; strain NR-49327): 8 µg/mL (≈ 23 µM)
- MIC (C. difficile strains; strain NR-49328): 8 µg/mL (≈ 23 µM)
- MIC (C. difficile strains; strain NR-49329): 8 µg/mL (≈ 23 µM)
- MIC (C. difficile strains; strain RMA23691): 2 µg/mL (≈ 5.76 µM)
- MIC (C. difficile strains; strain RMA23828): 8 µg/mL (≈ 23 µM)
- MIC (C. difficile strains; strain RMA24531): 2 µg/mL (≈ 5.76 µM)
- MIC (C. difficile strains; strain RMA24923): 2 µg/mL (≈ 5.76 µM)
- MIC (C. difficile strains; strain RMA26675): 8 µg/mL (≈ 23 µM)
- MIC (C. difficile strains; strain RMA27081): 8 µg/mL (≈ 23 µM)
- MIC (C. difficile strains; strain RMA27173): 4 µg/mL (≈ 11.5 µM)
- MIC50 (C. difficile strains; C. difficile strains of Table 4, read-out: MIC50): 4 µg/mL (≈ 11.5 µM)
- MIC90 (C. difficile strains; C. difficile strains of Table 4, read-out: MIC90): 8 µg/mL (≈ 23 µM)
SMILES: c1cc(-c2noc(-c3ccc4c(c3)CCN4)n2)ccc1OC1CCCC1 [Compound 54, 3-(4-(Cyclopentyloxy)phenyl)-5-(indolin-5-yl)-1,2,4-oxadiazole]
